Results: paper PMC4832243, “Discovery of Potent VEGFR-2 Inhibitors based on Furopyrimidine and Thienopyrimidne Scaffolds as Cancer Targeting Agents” (Scientific Reports, 2016)

What was measured:
SK-MEL-28 = assay: NCI 60 cell line panel (SRB), SK-MEL-28; format: cell-based; conditions: Homo sapiens; SK-MEL-28, Melanoma; single dose of 10 μM; read-out: Cell Growth Percent
NCI-H322M = assay: NCI 60 cell line panel (SRB), NCI-H322M; format: cell-based; conditions: Homo sapiens, Non-Small Cell Lung Cancer, single dose of 10 μM, read-out: Cell Growth Percent
SNB-19 = assay: NCI 60 cell line panel (SRB), SNB-19; format: cell-based; conditions: Homo sapiens; SNB-19, CNS Cancer; single dose of 10 μM; read-out: Cell Growth Percent
MCF7 = assay: NCI 60 cell line panel (SRB), MCF7; format: cell-based; conditions: Homo sapiens; MCF7, Breast Cancer; single dose of 10 μM; read-out: Cell Growth Percent
T-47D = assay: NCI 60 cell line panel (SRB), T-47D; format: cell-based; conditions: Homo sapiens, T47D, Breast Cancer, single dose of 10 μM, read-out: Cell Growth Percent
SF-295 = assay: NCI 60 cell line panel (SRB), SF-295; format: cell-based; conditions: Homo sapiens; SF-295, CNS Cancer; single dose of 10 μM; read-out: Cell Growth Percent
A549/ATCC = assay: NCI 60 cell line panel (SRB), A549/ATCC; format: cell-based; conditions: Homo sapiens, Non-Small Cell Lung Cancer, single dose of 10 μM, read-out: Cell Growth Percent
MDA-MB-435 = assay: NCI 60 cell line panel (SRB), MDA-MB-435; format: cell-based; conditions: Homo sapiens; MDA-MB-435, Melanoma; single dose of 10 μM; read-out: Cell Growth Percent
SW-620 = assay: NCI 60 cell line panel (SRB), SW-620; format: cell-based; conditions: Homo sapiens; SW-620, Colon Cancer; single dose of 10 μM; read-out: Cell Growth Percent
[1] = system: HUVEC umbilical vein endothelial cells; assay: In vitro HUVEC anti-proliferative assay (alamarBlue); format: cell-based; conditions: Homo sapiens, HUVEC proliferation at 10 μM, 72 hours
SF-268 = assay: NCI 60 cell line panel (SRB), SF-268; format: cell-based; conditions: Homo sapiens; SF-268, CNS Cancer; single dose of 10 μM; read-out: Cell Growth Percent
HCT-116 = assay: NCI 60 cell line panel (SRB), HCT-116; format: cell-based; conditions: Homo sapiens; HCT-116, Colon Cancer; single dose of 10 μM; read-out: Cell Growth Percent
DU-145 = assay: NCI 60 cell line panel (SRB), DU-145; format: cell-based; conditions: Homo sapiens; DU-145, Prostate Cancer; single dose of 10 μM; read-out: Cell Growth Percent
MALME-3M = assay: NCI 60 cell line panel (SRB), MALME-3M; format: cell-based; conditions: Homo sapiens, Melanoma, single dose of 10 μM, read-out: Cell Growth Percent
RXF 393 = assay: NCI 60 cell line panel (SRB), RXF 393; format: cell-based; conditions: Homo sapiens; RXF 393, Renal Cancer; single dose of 10 μM; read-out: Cell Growth Percent
OVCAR-4 = assay: NCI 60 cell line panel (SRB), OVCAR-4; format: cell-based; conditions: Homo sapiens; OVCAR-4, Ovarian Cancer; single dose of 10 μM; read-out: Cell Growth Percent
NCI-H460 = assay: NCI 60 cell line panel (SRB), NCI-H460; format: cell-based; conditions: Homo sapiens; NCI-H460, Non-Small Cell Lung Cancer; single dose of 10 μM; read-out: Cell Growth Percent
KM12 = assay: NCI 60 cell line panel (SRB), KM12; format: cell-based; conditions: Homo sapiens; KM12, Colon Cancer; single dose of 10 μM; read-out: Cell Growth Percent
K-562 = assay: NCI 60 cell line panel (SRB), K-562; format: cell-based; conditions: Homo sapiens, K562; K-562, Leukemia; single dose of 10 μM; read-out: Cell Growth Percent
MDA-MB-231/ATCC = assay: NCI 60 cell line panel (SRB), MDA-MB-231/ATCC; format: cell-based; conditions: Homo sapiens, Breast Cancer, single dose of 10 μM, read-out: Cell Growth Percent
UACC-257 = assay: NCI 60 cell line panel (SRB), UACC-257; format: cell-based; conditions: Homo sapiens; UACC-257, Melanoma; single dose of 10 μM; read-out: Cell Growth Percent
SK-MEL-5 = assay: NCI 60 cell line panel (SRB), SK-MEL-5; format: cell-based; conditions: Homo sapiens; SK-MEL-5, Melanoma; single dose of 10 μM; read-out: Cell Growth Percent
VEGFR-2 (KDR) = biological target: T1, VEGFR-2 (KDR) (Homo sapiens, UniProt P35968); assay: In vitro VEGFR-2 tyrosine kinase activity (Kinase-Glo Plus luminescence, BPS Bioscience); format: biochemical
T1 construct: purchased BPS Bioscience 40301
T1 sequence (P35968 20-1356): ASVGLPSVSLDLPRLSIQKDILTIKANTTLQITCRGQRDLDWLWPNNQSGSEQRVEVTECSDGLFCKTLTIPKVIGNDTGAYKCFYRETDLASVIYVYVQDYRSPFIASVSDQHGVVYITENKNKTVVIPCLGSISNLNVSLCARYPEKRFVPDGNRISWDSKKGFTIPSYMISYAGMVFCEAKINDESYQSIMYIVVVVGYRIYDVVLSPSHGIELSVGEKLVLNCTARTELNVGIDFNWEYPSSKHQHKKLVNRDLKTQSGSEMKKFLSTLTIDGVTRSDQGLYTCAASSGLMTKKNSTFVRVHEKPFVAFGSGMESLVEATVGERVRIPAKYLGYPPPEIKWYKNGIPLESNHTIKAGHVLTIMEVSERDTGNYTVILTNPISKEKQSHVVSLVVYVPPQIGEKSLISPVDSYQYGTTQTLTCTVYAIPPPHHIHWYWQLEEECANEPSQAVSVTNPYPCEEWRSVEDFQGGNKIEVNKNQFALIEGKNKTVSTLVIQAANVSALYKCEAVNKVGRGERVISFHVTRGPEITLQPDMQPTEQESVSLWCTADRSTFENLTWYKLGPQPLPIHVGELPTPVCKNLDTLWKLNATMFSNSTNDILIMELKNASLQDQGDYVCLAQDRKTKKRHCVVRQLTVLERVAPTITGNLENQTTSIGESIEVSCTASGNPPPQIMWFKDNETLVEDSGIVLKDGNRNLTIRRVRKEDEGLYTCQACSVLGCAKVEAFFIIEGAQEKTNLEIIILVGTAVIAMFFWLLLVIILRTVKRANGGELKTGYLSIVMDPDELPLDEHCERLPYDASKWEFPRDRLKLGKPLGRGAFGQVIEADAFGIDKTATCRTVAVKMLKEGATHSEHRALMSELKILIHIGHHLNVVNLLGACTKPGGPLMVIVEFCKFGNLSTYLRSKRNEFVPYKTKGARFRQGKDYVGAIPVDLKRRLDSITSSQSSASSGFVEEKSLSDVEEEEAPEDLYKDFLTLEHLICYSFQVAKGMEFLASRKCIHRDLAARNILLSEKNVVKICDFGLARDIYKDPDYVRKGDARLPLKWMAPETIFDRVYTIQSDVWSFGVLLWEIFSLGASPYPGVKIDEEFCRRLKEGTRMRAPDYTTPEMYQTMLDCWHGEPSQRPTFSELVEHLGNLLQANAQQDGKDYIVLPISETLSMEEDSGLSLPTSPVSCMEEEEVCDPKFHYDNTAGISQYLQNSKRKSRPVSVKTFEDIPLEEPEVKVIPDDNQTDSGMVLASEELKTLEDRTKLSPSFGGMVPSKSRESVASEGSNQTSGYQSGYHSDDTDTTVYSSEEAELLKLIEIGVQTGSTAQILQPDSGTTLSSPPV

SN12C = assay: NCI 60 cell line panel (SRB), SN12C; format: cell-based; conditions: Homo sapiens, Renal Cancer, single dose of 10 μM, read-out: Cell Growth Percent
EKVX = assay: NCI 60 cell line panel (SRB), EKVX; format: cell-based; conditions: Homo sapiens, Non-Small Cell Lung Cancer, single dose of 10 μM, read-out: Cell Growth Percent

O=C(Nc1ccccc1)Nc1ccc(Oc2ncnc3sc4c(c23)CCCC4)cc1 [Compound 21a]
activity at 10 µM (SK-MEL-28): 86.6%
activity at 10 µM (NCI-H322M): 99.7%
activity at 10 µM (SNB-19): 63.1%
activity at 10 µM (MCF7): 44.5%
activity at 10 µM (T-47D): 37.9%
activity at 10 µM (SF-295): 64.9%
activity at 10 µM (A549/ATCC): 67.8%
activity at 10 µM (MDA-MB-435): 19.2%
activity at 10 µM (SW-620): 92%
activity at 10 µM ([1]; read-out: % Cell growth): 35.7%
inhibition at 10 µM ([1]; read-out: % Cell inhibition): 64.3%
activity at 10 µM (SF-268): 76.3%
activity at 10 µM (HCT-116): 67.4%
activity at 10 µM (DU-145): 86.1%
activity at 10 µM (MALME-3M): 84.2%
activity at 10 µM (RXF 393): 72%
activity at 10 µM (OVCAR-4): 55.1%
activity at 10 µM (NCI-H460): 70.7%
activity at 10 µM (KM12): 46.4%
activity at 10 µM (K-562): 26.1%
activity at 10 µM (MDA-MB-231/ATCC): 66.2%
activity at 10 µM (UACC-257): 90.4%
activity at 10 µM (SK-MEL-5): 67.9%
IC50 (VEGFR-2 (KDR); 5 concentrations 1 nM - 10 μM): 454 nM
inhibition at 10 µM (VEGFR-2 (KDR); single dose concentration of 10 μM): > 70%
activity at 10 µM (SN12C): 83.3%
activity at 10 µM (EKVX): 60.8%
